Results from patent publication US20240376097A1, “BCL-2 Inhibitor” (BeiGene Ltd., priority 2020, published 2024).
Like-named read-outs stand apart in the source and are kept apart here.

Tests used:
[1] = system: RS4;11 (BCL-2 dependent acute lymphoblastic leukemia cell line); test: RS4;11 Cell Proliferation Assay; type: cell-based; conditions: Homo sapiens, RS4-11, RS4;11 cells, read-out: Cellular proliferation assay (IC50, nM) RS4
Method in brief: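 Viability measured via CellTiter-Glo luminescence after a 48 h, 37 °C exposure to compounds (10 points, highest 1 μM). Seeding was 50,000 RS4;11 cells per well in 10% FBS RPMI-1640; IC50 given as mean.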

[2] = biological target: recombinant human Bcl-2 D103Y protein (Homo sapiens (Human), UniProt P10415, D103Y); test: Bcl-2-D103Y Biochemical Assay (TR-FRET); type: binding; conditions: for IC50: TR-FRET, FITC labeled Bak peptide; for Ratio of Bcl-2 D103Y/Bcl-2 WT: ratio of IC50
Method in brief: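 Compounds titrated against the Bcl-2 D103Y–ligand interaction; inhibition derived from the TR-FRET emission ratio 490 nm/520 nm after 337 nm excitation. Four-parameter logistic fitting gave IC50.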

[3] = system: recombinant human Bcl-2-G101V protein; test: Bcl-2-G101V TR-FRET Assay; type: binding; conditions: for Ratio of Bcl-2 G101V/WT: ratio of biochemical IC50 Bcl-2 G101V / Bcl-2 WT
Method in brief: (§1)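 Ex337/em490 & 520 nm TR-FRET; % inhibition of Bcl-2-G101V–ligand interaction from 490:520 ratio vs. increasing compound conc.; IC50 by 4-parameter logistic fit.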

[4] = biological target: recombinant human Bcl-2-G101V protein (Homo sapiens (Human), UniProt P10415, G101V); test: Bcl-2-G101V TR-FRET Assay; type: binding; conditions: Bcl-2 G101V mutant, TR-FRET; read-out: Biochemical assay (IC50, nM) Bcl-2 G101V
Method in brief: as §1

[5] = system: BCL-2 G101V knock-in cell line H96 (derive from RS4;11); test: Bcl 2-G101V Knock-In RS4;11 Cell Proliferation Assay; type: cell-based; conditions: Homo sapiens, RS4;11 Bcl-2 G101V knock-in clone H96, 48 hrs, CellTiter-GLO, read-out: Cellular proliferation assay (IC50, nM) RS4
Method in brief: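 CellTiter-Glo luminescence after 48 h, 37 °C compound treatment (10 concentrations, maximum 1 μM or 10 μM) gave mean IC50 values. Cells were 50,000 per well of H96, a BCL2-G101V knock-in single clone derived from RS4;11 by Cas9 editing.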

[6] = biological target: Recombinant human Bcl-2 protein (Homo sapiens (Human), UniProt P10415); test: Bcl-2 TR-FRET Assay; type: binding
Method in brief: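 In pH 7.5 phosphate buffer containing NaCl, EDTA, Tween-20 and BSA, 0.05 nM Bcl-2 saw serially diluted compound for 0.5 h before 0.5 nM FITC-Bak peptide was added. Signal ratio at 520/490 nm after 1 h yielded IC50.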

[7] = Bcl-2 wild type, TR-FRET, read-out: Biochemical assay (IC50, nM) Bcl-2 WT
[8] = wild type Bcl-2, unit inferred, read-out: Bcl-2 WT

Compound | IC50 [1] | IC50 [2] | Ratio of Bcl-2 D103Y/Bcl-2 WT [2] | Ratio of Bcl-2 G101V/WT [3] | IC50 [4] | IC50 [5] | IC50 [6, 7] | IC50 [6, 8] | ratio of Bcl-2 D103Y/Bcl-2 wt, compared with F91b in WO2019210828 ([2]; comparison in words) | ratio of IC50 of Bcl-2 G101V/Bcl-2 wt, compared with Example F132b in WO2019210828 and ABT-199 (venetoclax) ([3]; comparison in words)
COc1cc(CN2CCN(C3CC4(C3)CN(c3ccc(C(=O)NS(=O)(=O)c5ccc(NC[C@H]6CC[C@](C)(O)CC6)c([N+](=O)[O-])c5)c(Oc5cnc6[nH]ccc6c5)c3)C4)[C@H](c3ccccc3C(C)C)C2)ccc1C [Example 275, 2-((1H-pyrrolo[2,3-b]pyridin-5-yl)oxy)-N-((4-((((1r,4r)-4-hydroxy-4-methylcyclohexyl)methyl)amino)-3-nitrophenyl)sulfonyl)-4-(6-((R)-2-(2-isopropylphenyl)-4-(3-methoxy-4-methylbenzyl)piperazin-1-yl)-2-azaspiro[3.3]heptan-2-yl)benzamide] | 0.14 nM | 210 pM | 0.76 | 2 | 0.54 nM | 0.38 nM | 0.27 nM | 0.27 nM |  | 
COc1ccccc1CN1CCN(C2CC3(CCN(c4ccc(C(=O)NS(=O)(=O)c5ccc(NC[C@H]6CC[C@](C)(O)CC6)c([N+](=O)[O-])c5)c(Oc5cnc6[nH]ccc6c5)c4)CC3)C2)C(c2ccccc2C(C)C)C1 (some centres unmarked) [Example 47, 2-((1H-pyrrolo[2,3-b]pyridin-5-yl)oxy)-N-((4-((((1r,4r)-4-hydroxy-4-methylcyclohexyl)methyl)amino)-3-nitrophenyl)sulfonyl)-4-(2-(2-(2-isopropylphenyl)-4-(2-methoxybenzyl)piperazin-1-yl)-7-azaspiro[3.5]nonan-7-yl) benzamide] | 1 nM | 400 pM | 3.3 | 4.4 | 0.53 nM | 5.33 nM | 0.12 nM | 0.12 nM |  | 
COc1ccc(CN2CCN(C3CC4(CCN(c5ccc(C(=O)NS(=O)(=O)c6ccc(NC[C@@H]7CN(C8COC8)CCO7)c([N+](=O)[O-])c6)c(Oc6cnc7[nH]ccc7c6)c5)CC4)C3)[C@@H](c3ccccc3C(C)C)C2)cc1 (single isomer, unassigned) [Example 84, 2-((1H-pyrrolo[2,3-b]pyridin-5-yl)oxy)-4-(2-((R or S)-2-(2-isopropylphenyl)-4-(4-methoxybenzyl)piperazin-1-yl)-7-azaspiro[3.5]nonan-7-yl)-N-((3-nitro-4-((((R)-4-(oxetan-3-yl)morpholin-2-yl)methyl)amino)phenyl)sulfonyl)benzamide] | 0.206 nM | 49 pM | 1.8 | 5.2 | 0.15 nM | 0.6 nM | 0.028 nM | 0.028 nM | significantly lower | much lower
CC(C)c1ccccc1C1CN(C2COC2)CCN1C1CC2(CCN(c3ccc(C(=O)NS(=O)(=O)c4ccc(NC[C@H]5CC[C@](C)(O)CC5)c([N+](=O)[O-])c4)c(Oc4cnc5[nH]ccc5c4)c3)CC2)C1 (some centres unmarked) [Example 6, 2-((1H-pyrrolo[2,3-b]pyridin-5-yl)oxy)-N-((4-((((1r,4r)-4-hydroxy-4-methylcyclohexyl)methyl)amino)-3-nitrophenyl)sulfonyl)-4-(2-(2-(2-isopropylphenyl)-4-(oxetan-3-yl)piperazin-1-yl)-7-azaspiro[3.5]nonan-7-yl)benzamide] | 0.53 nM | 180 pM | 24 | 24.6 | 0.32 nM | 4.83 nM | 0.013 nM | 0.013 nM |  | 
CC(C)c1ccccc1C1CN(Cc2cnn(C)c2)CCN1C1CC2(CCN(c3ccc(C(=O)NS(=O)(=O)c4ccc(NC[C@H]5CC[C@](C)(O)CC5)c([N+](=O)[O-])c4)c(Oc4cnc5[nH]ccc5c4)c3)CC2)C1 (some centres unmarked) [Example 22, 2-((1H-pyrrolo[2,3-b]pyridin-5-yl)oxy)-N-((4-((((1r,4r)-4-hydroxy-4-methylcyclohexyl)methyl)amino)-3-nitrophenyl)sulfonyl)-4-(2-(2-(2-isopropylphenyl)4-((1-methyl-1H-pyrazol-4-yl)methyl)piperazin-1-yl)-7-azaspiro[3.5]nonan-7-yl) benzamide] | 0.46 nM | 120 pM | 9.2 | 6.1 | 0.079 nM | 2.6 nM | 0.013 nM | 0.013 nM |  | 
COc1cc(CN2CCN(C3CC4(C3)CN(c3ccc(C(=O)NS(=O)(=O)c5ccc(NC[C@H]6CC[C@](C)(O)CC6)c([N+](=O)[O-])c5)c(Oc5cnc6[nH]ccc6c5)c3)C4)[C@H](c3ccccc3C(C)C)C2)cc2c1OCCC2(C)C [Example 334] | 0.17 nM |  |  | 2.8 | 0.33 nM | 0.65 nM | 0.12 nM |  |  | 
CCc1ccc(CN2CCN(C3CC4(CCN(c5ccc(C(=O)NS(=O)(=O)c6ccc(NC[C@H]7CC[C@](C)(O)CC7)c([N+](=O)[O-])c6)c(Oc6cnc7[nH]ccc7c6)c5)CC4)C3)[C@H](c3ccccc3C(C)C)C2)cc1OC [Example 265, 2-((1H-pyrrolo[2,5-b]pyridin-5-yl)oxy)-4-(2-((R)-4-(4-ethyl-3-methoxybenzyl)-2-(2-isopropylphenyl)piperazin-1-yl)-7-azaspiro[3.5]nonan-7-yl)-N-((4-((((1r,4r)-4-hydroxy-4-methylcyclohexyl)methyl)amino)-3-nitrophenyl)sulfonyl)benzamide] | 0.15 nM |  |  | 3 | 1.9 nM | 0.65 nM | 0.66 nM |  |  | 
COc1ccc(CN2CCN(C3CC4(CCN(c5ccc(C(=O)NS(=O)(=O)c6ccc(NC[C@H]7CC[C@](C)(O)CC7)c([N+](=O)[O-])c6)c(Oc6cnc7[nH]ccc7c6)c5)CC4)C3)C(c3ccccc3C(C)C)C2)cc1Cl (some centres unmarked) [Example 128, 2-((1H-pyrrolo[2,3-b]pyridin-5-yl)oxy)-4-(2-(4-(3-chloro-4-methoxybenzyl)-2-(2-isopropylphenyl)piperazin-1-yl)-7-azaspiro[3.5]nonan-7-yl)-N-((4-((((1r,4r)-4-hydroxy-4-methylcyclohexyl)methyl)amino)-3-nitrophenyl)sulfonyl)benzamide] | 0.36 nM |  |  | 4 | 2.6 nM | 3.94 nM | 0.63 nM |  |  | 
COc1ccc(CN2CCN(C3CC4(CCN(c5ccc(C(=O)NS(=O)(=O)c6ccc(NC[C@H]7CC[C@](C)(O)CC7)c([N+](=O)[O-])c6)c(Oc6cnc7[nH]ccc7c6)c5)CC4)C3)C(c3cc(F)ccc3C(C)C)C2)cc1 (some centres unmarked) [Example 235] | 0.27 nM |  |  | 3.8 | 1.1 nM | 1.21 nM | 0.28 nM |  |  | 
COc1ccc(CN2CCN(C3CC4(CCN(c5ccc(C(=O)NS(=O)(=O)c6ccc(NCC7CCOCC7)c([N+](=O)[O-])c6)c(Oc6cnc7[nH]ccc7c6)c5)CC4)C3)C(c3ccccc3C)C2)cc1 (centres unmarked) [Example 38] | 2.5 nM |  |  | 77.4 | 4.1 nM | 37.5 nM | 0.053 nM |  |  | 
COc1cccc(CN2CCN(C3CC4(CCN(c5ccc(C(=O)NS(=O)(=O)c6ccc(NC[C@H]7CC[C@](C)(O)CC7)c([N+](=O)[O-])c6)c(Oc6cnc7[nH]ccc7c6)c5)CC4)C3)C(c3ccccc3C(C)C)C2)c1Cl (some centres unmarked) [Example 120, 2-((1H-pyrrolo[2,3-b]pyridin-5-yl)oxy)-4-(2-(4-(2-chloro-3-methoxybenzyl)-2-(2-isopropylphenyl)piperazin-1-yl)-7-azaspiro[3.5]nonan-7-yl)-N-((4-((((1r,4r)-4-hydroxy-4-methylcyclohexyl)methyl)amino)-3-nitrophenyl)sulfonyl)benzamide] | 1.25 nM |  |  | 8 | 3.4 nM | 12.7 nM | 0.42 nM |  |  | 
COc1cc(CN2CCN(C3CC4(CCN(c5ccc(C(=O)NS(=O)(=O)c6ccc(NC[C@H]7CC[C@](C)(O)CC7)c([N+](=O)[O-])c6)c(Oc6cnc7[nH]ccc7c6)c5)CC4)C3)[C@H](c3ccccc3C(C)C)C2)ccc1C(C)C [Example 263, 2-((1H-pyrrolo[2,3-b]pyridin-5-yl)oxy)-N-((4-((((1r,4r)-4-hydroxy-4-methylcyclohexyl)methyl)amino)-3-nitrophenyl)sulfonyl)-4-(2-((R)-4-(4-isopropyl-3-methoxybenzyl)-2-(2-isopropylphenyl)piperazin-1-yl)-7-azaspiro[3.5]nonan-7-yl) benzamide] | 0.18 nM |  |  | 3.9 | 4.9 nM | 1.01 nM | 1.3 nM |  |  | 
